Earlier results in US7202251B2, “Bicyclic anilide spirohydantoin CGRP receptor antagonists” (Merck & Co., Inc., priority 2003, dated 2007).
Ends that are not written are not given here.

Assays:
facial blood flow [1] = settings: marmoset, electrical stimulation of the trigeminal ganglion
facial blood flow [2] = settings: rat, trigeminal ganglion stimulation
[3] = tested on: middle meningeal artery diameter; settings: rats, electrical stimulation of the dura mater, prior administration

Compound | effect on increase in facial blood flow (facial blood flow [1]) | effect on increased facial blood flow (facial blood flow [2]) | effect on increase of middle meningeal artery diameter [3]
NCCCC[C@H](NC(=O)[C@@H](Cc1cc(Br)c(O)c(Br)c1)NC(=O)N1CCC(N2Cc3ccccc3NC2=O)CC1)C(=O)N1CCN(c2ccncc2)CC1 [BIBN4096BS] | blocked |  | 
CGRP(8-37): a peptide CGRP antagonist (VTHRLAGLLSRSGGVVKNNFVPTNVGSKAF; ends and bridges not checked; UniProt P06881 90-119, looked up, fragment) |  | inhibited | blocked
